These results are taken from patent US11066395B2, “Dimethylaminoethanol salt of a GLP-1 receptor modulator” (RECEPTOS LLC, priority 2016, dated 2021).

Data set [1] is described as follows: Stress testing of dimethylaminoethanol salt (40° C./75% RH and 80° C./ambient, 1 week), XRPD and HPLC. It counts as physicochemical. Here is the method: To better understand the physical and chemical stability of the dimethylaminoethanol salt, the salt was placed under stressed condition (40° C./75% RH and 80° C./Ambient) for 1 week. The solids were then removed and analyzed via both XRPD and HPLC to determine physical and chemical stability, respectively.

The nature of data set [2]: pH solubility curve (buffers pH 1-pH 8, deionized water). Format: physicochemical. Here is the method:
A range of buffers were made up (pH 1-pH 8) to understand the effect of pH on the measured solubility. In each case the pH is measured prior to isolation to ensure most accurate data. […] All solids were characterized by XRPD post solubility determination and shown all to be amorphous (FIG. 44), which is common when a solid is placed into aqueous conditions.

A short description of data set [3]: Hygroscopicity by DVS/GVS with XRPD post GVS. Format: physicochemical. The source says:
To determine the hygroscopicity of the dimethylaminoethanol salt the sample was submitted for DVS (FIG. 39).
The thermal event likely corresponds to the melt of the crystalline material.

Data set [4] is described as follows: Hydration study: slurry in aqueous solvents containing 10% by volume of water, XRPD. The settings on record: acetone, acetonitrile or methanol/water 90/10 by volume. Format: physicochemical. The procedure:
To understand the potential of forming hydrates the dimethylaminoethanol salt was slurried in a series of aqueous solvents, containing 10% by volume of water.
When the solids were analyzed by XRPD post hydration study (FIG. 41), the majority of solids had been rendered amorphous. Only the acetone/water mixture had any signs of crystallinity, which corresponded to the input material. […] The generation of amorphous material could be due to the high affinity of the molecule (RP-101) with solvents and water.

For data set [5] the following is noted: counterion base; cited from earlier work.
Data set [6] is described as follows: Thermodynamic solubility testing in pH 6.8 phosphate buffer. Format: physicochemical. The settings on record: for solubility at 24 h: phosphate buffer, pH 6.8, aqueous buffer, thermodynamic from solid. The procedure:
0.5 mL of that buffer is then added to 5-10 mg of each crystalline salt hit. The pH of the resultant slurries are measured after 10 minutes and, if needed, adjusted back to pH 6.8 using the individual buffer component. Samples were stirred at room temperature for 24 hours, filtered, and analyzed for concentration by HPLC.

The nature of data set [7]: Salt screen: storage of salts at 40° C./75% RH for 7 days, re-analysis by XRPD.
Description: These resultant suspensions were temperature cycled between ambient temperature (22° C.) and 40° C. in 4 hour cycles for 72 hours. Samples were analyzed by XRPD and any remaining solid was isolated by filtration using a centrifuge and tubes with a 0.45 m filter insert. Isolated solids were allowed to dry at ambient condition and analyzed by ^1H NMR.

The structures appear in SMILES notation. Counter-ions that a name gives are not always drawn. Like-named read-outs stand apart in the source and are kept apart here. Marks after values point to notes of the source that are not given here.

A word on the Solubility: it is how much of the substance goes into solution per volume. With `CCC1CCC(C2CC=C(c3cnc(-c4ccc(CC(NC(=O)c5ccc(C(C)(C)C)s5)C(=O)N5CC(C(=O)O)C5)cc4)nc3)CC2)CC1` (centres unmarked) [deanol-RP-101, 2-hydroxy-N,N-dimethylethanaminium 1-(2-(5-(tert-butyl)-thiophene-2-carboxamido)-3-(4-(5-(4′-ethyl-[1,1′-bi(cyclohexan)]-3-en-4-yl)-pyrimidin-2-yl)phenyl)propanoyl)azetidine-3-carboxylate salt], in data set [1] (40° C./75% RH), the “Crystalline form by XRPD post stability (physical stability)” value was “same crystalline form was present”, the “Crystallinity by XRPD post stability” value is reported as “decrease in crystallinity” and the “Purity by HPLC post stress (chemical stability)” value worked out at 97.3%. In addition, in data set [1] (80° C./ambient), the “Crystalline form by XRPD post stability (physical stability)” value is “same crystalline form was present” and the “Purity by HPLC post stress (chemical stability)” value amounted to 96.8%. In addition, in data set [2] (acidic conditions), the Solubility result was “low”. Besides, in data set [2] (basic conditions), the Solubility result is reported as “rises significantly”. Also, the Solubility result in data set [2] (deionized water) is on record as “relatively high”. In data set [3], the “Hygroscopicity (DVS/GVS)” value is “the process was reversible and did not indicate the conversion to a hydrate”; the “XRPD post GVS compared to input material” value is on record as “no change seen”. The “Hydrate formation (XRPD post hydration study)” value in data set [4] was “no obvious hydrate”.

What is called LogP is the decadic logarithm of the partition coefficient of the neutral form, usually between octanol and water. Consider `NCCCC[C@H](N)C(=O)O` [L-Lysine], for which, in data set [5], the LogP was −1.04 and the “pKa 3” value is on record as 2.16*.

For orientation: solubility means how much of the substance goes into solution per volume. Consider `CCC1CCC(C2CC=C(c3cnc(-c4ccc(CC(NC(=O)c5ccc(C(C)(C)C)s5)C(=O)N5CC(C(=O)O)C5)cc4)nc3)CC2)CC1` (centres unmarked) [meglumine-RP-101], for which the “Solubility” value in data set [6] (aqueous, pH 6.8 phosphate buffer, room temperature, 24 hours, HPLC, listed as Meglumine (DCM)) was 160 µg/mL. For the same compound, the solubility at 24 h in data set [6] (aqueous, pH 6.8 phosphate buffer, room temperature, 24 hours, HPLC, read-out: Solubility) amounted to 303 µg/mL; in data set [6] (material obtained from 1,4-dioxane, read-out: Solubility at pH 6.8), 303 µg/mL; in data set [6] (material obtained from DCM, read-out: Solubility at pH 6.8) it was 160 µg/mL. Moreover, the “Stability at 40° C./75% RH (XRPD)” value in data set [7] (material obtained from 1,4-dioxane) is “Only small changes”; in data set [7] (material obtained from DCM) it was “decrease in crystallinity”; in data set [7] (material obtained from MEK) it was “Only small changes”.

Take `C[N+](C)(C)CCO.[OH-]` [Choline hydroxide]: in data set [5], the log partition coefficient (LogP) is −3.70 and the “pKa 1” value was 11.00.

As to `CNC[C@H](O)[C@@H](O)[C@H](O)[C@H](O)CO` [N-Methylglucamine, (2R,3R,4R,5S)-6-(methylamino)hexane-1,2,3,4,5-pentaol], the log partition coefficient (LogP) in data set [5] is given as −3.37.
